Data set [1] deals with guinea pig. Nature of the data set: Photoirritation test in guinea pigs. In kind it is in vivo. As to the method:
The potential of the test item 0.1% cream to cause photoallergic and/or photoirritant reactions following topical application to the skin, in association with exposure to ultraviolet light, was assessed using a guinea pig model.
In the first phase, an assessment of the photoirritant properties of the test item was performed in 6 groups of animals. These were used both to establish suitable concentrations of the test item for use in the sensitisation assay and to provide information on photo-induced irritation. Animals were treated as follows (Table 6):
The photoirritation test was undertaken using 2 (irradiated) groups, each of 5 animals, treated with the control and test items, cream placebo and test item 0.1% cream, respectively (cf. Table 6, groups 1 and 3) and 2 similarly constituted groups (cf. Table 6, groups 2 and 4), treated in the same manner but not irradiated. Aliquots of the undiluted test or control item (100%), 2 concentrations (20% and 50% in purified water) of the test and control items and the vehicle alone (purified water), were spread evenly over defined skin sites prepared on the dorsum of the animals. Animals of the irradiated groups (groups 1 and 3) were exposed to both UVA (10 Joules/cm^2) and UVB (0.1 Joules/cm^2) radiation following dosing. […]

Data set [2] relates to Chinese hamster ovary cells. Nature of the data set: Chromosome aberrations in Chinese hamster ovary cells in vitro (photomutagenicity assay). Particulars: 3 hours treatment, absence or presence of ultraviolet light.
Procedure: The test item was assayed for the ability to cause chromosomal damage in Chinese hamster ovary cells, following in vitro treatment in the absence and presence of UVA/UVB irradiation.
Solutions of the test item were prepared in Hank's Balanced Salt Solution (HBSS).
Both in the absence and presence of UV light, the cells were treated for 3 hours and the harvest time of 20 hours, corresponding to approximately 1.5 cell cycle, was used.
The experiment included appropriate negative and positive controls. Two cell cultures were prepared at each test point.
Dose levels were selected for the scoring of chromosomal aberrations on the basis of the cytotoxicity of the test item treatments as determined by the reduction of cell counts at the time of harvesting.
One hundred metaphase spreads were scored for chromosomal aberrations from each culture.
Data set [3] has as its system Balb/c 3T3 cells. It counts as cell-based. The settings on record: mouse. The method, then: The potential in vitro phototoxicity of the test item was evaluated by the measurements of neutral red uptake for cellular toxicity on cultures of Balb/c 3T3 cells treated with different doses of the test item and exposed to UVA irradiation. Test item solutions were prepared using Earle's Balanced Salt Solution (EBSS).
A preliminary dose-range finding experiment in the presence (+UVA) and in the absence (−UVA) of light was undertaken in order to select appropriate dose levels for the main assays. The test item was assayed at a maximum dose level of 1000 μg/ml (the upper limit indicated in the study protocol) and at a wide range of lower dose levels: 500, 250, 125, 62.5, 31.3, 15.6 and 7.81 μg/ml. […] In this case the chemical is considered to be non-phototoxic. The same dose range was used for the main assay.
A main experiment was performed using the following dose levels: 1000, 500, 250, 125, 62.5, 31.3, 15.6 and 7.81 μg/ml.

For data set [4], the system named is guinea pig. Nature of the data set: Photosensitisation test in guinea pigs. It counts as in vivo. The method, then: The second phase of the study was an assessment of sensitisation, in which a total of 5 groups were treated as follows (Table 7):
The photosensitisation test was undertaken using 2 groups of 10 animals (cf. Table 7, groups 8 and 9) induced with the control item and the test item and 1 control group of 10 animals (cf. Table 7, group 7) induced with the selected vehicle (purified water). In an attempt to induce sensitisation, animals were intradermally injected with an emulsion of Freund's complete adjuvant. The test and control items, at 100% concentration, were applied topically over the area among the injection sites of FCA a total of 6 times over a 2 week period. Animals were exposed to both UVA (10 Joules/cm^2) and UVB (0.1 Joules/cm^2) radiation following dosing. Control group animals were treated in the same manner but the selected vehicle (purified water) was used in place of the test or control items. Approximately 2 weeks after the final induction exposure, all animals were challenged by topical application of both the vehicle and the test or control item at 20% and 50% concentrations, respectively. These concentrations were selected as they were considered non-irritant to the skin in association with ultraviolet irradiation on the basis of the results obtained at the photoirritation test. Animals of the 2 test groups and the control group were exposed to both UVA (10 Joules/cm^2) and UVB (0.1 Joule/cm^2) radiation following dosing. Additional sites on each animal were topically treated with both the vehicle and test or control items, but treatment was not followed by exposure to ultraviolet irradiation. Approximately 24, 48 and 72 hours after challenge exposure the treated sites were examined for evidence of reaction to treatment.
One group of 5 animals (cf. Table 7, group 11) was induced with this substance at a concentration of 15% in acetone. A control group of 3 animals (cf. Table 7, group 10) was treated in the same manner with the vehicle alone (acetone). A concentration of 10% of the reference item (Musk Ambrette) in acetone was selected for the challenge. […]

Here are results for three compounds from patent US8926955B2, “Synthesis of polymer conjugates of indolocarbazole compounds” (priority 2008, dated 2015).

With `COc1c2occc2cc2ccc(=O)oc12` [8-Methoxypsoralen], the skin reaction result was “well defined to moderate erythema and a slight oedema” in data set [1] (exposed to ultraviolet light, concentrations 0.01% and 0.1%); “No response was seen” in data set [1] (without exposure to ultraviolet light). The “cells bearing chromosomal aberrations (including or excluding gaps)” value in data set [2] is recorded as “Statistically significant increases”.

Take `CN(C)CCCN1c2ccccc2Sc2ccc(Cl)cc21` [Chlorpromazine, reference compound]: the “Photo Irritation Factor (PIF)” value in data set [3] is on record as 21.9.

Consider `COc1c(C(C)(C)C)cc([N+](=O)[O-])c(C)c1[N+](=O)[O-]` [Musk Ambrette], for which the response at challenge result in data set [4] (group 10, induced with the vehicle) is listed as “No response to the reference item was observed”; in data set [4] (group 11, sites treated but not irradiated) it was “No response to the reference item was observed”. Moreover, the “animals responding at challenge (very slight to slight erythema)” value in data set [4] (group 11 (induced at 15% in acetone), challenge at 10% followed by UV irradiation) was 4/5.
